Measurements published in PubChem BioAssay AID2060484 (Molecular Pharmacology Branch, DTP, NCI, 2025).
Several values for one entry are separate records, joined by “and”; a condition that tells them apart may be missing. Identical values can stand only once.

Tested on: SUM149PT spheroids with HUVEC/MSC, viability
Experiment: Anticancer human tumor SUM149PT cell line growth inhibition [GQUAD];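 also: spheroids exposed to drugs for seven days before readout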;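 as to viability, T/C: percent viability relative to DMSO vehicle control taken as 100%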
Details: for viability, T/C: stronger effect = lower value
Description: DNA G-quadruplex Stabilizer Agents in Combinations in Complex Spheroids
A high-throughput screen of multi-cell type tumor spheroids was designed to identify active combinations of DNA G-quadruplex stabilizer agents and targeted small molecules. Complex spheroids include a stromal component modeled by human endothelial cells (HUVEC) and fibroblasts modeled by human mesenchymal stem cells (MSCs). The concentration ranges selected for each drug and investigational agent were based upon clinically achievable concentrations if the clinical Cmax of the agent was known.
Compounds. The drugs and investigational agents: pidnarulex (CX-5461; NSC782164), APTO-253 (NSC789042), BRACO-19 (NSC847499), peposertib (NSC802822), ceralasertib (NSC780249), elimusertib (NSC800525), camonsertib (NSC841442), AZD-1390 (NSC803789), olaparib (NSC753686), talazoparib (NSC767125), ART-558 (NSC835418), sotorasib (NSC818433), MRTX-1133 (NSC836407), SN-38 (NSC673596), topotecan (NSC609699), etoposide (NSC141540), doxorubicin (NSC123127), gemcitabine (NSC613327), 5-fluorouracil (NSC19893), paclitaxel (NSC125973), vemurafenib (NSC761431), panobinostat (NSC761190), R-306465 (JNJ-16241199; NSC773264), adavosertib (NSC754352), TP-3654 (NSC805149), carboplatin (NSC241240), KSQ-4279 (NSC840948), and staurosporine (NSC755774) were obtained from the National Cancer Institute (NCI) Developmental Therapeutics Program Chemical Repository (34). The FDA-approved anticancer drug set is available from the NCI Developmental Therapeutics Program. […] The stock solutions were prepared in dimethyl sulfoxide (DMSO, Sigma-Aldrich, St. Louis, MO, cat. D2650) at 800-fold the tested concentration and stored at -70 degrees C prior to their use. All drugs and investigational agents were tested over a range starting from a high concentration at or near the clinical Cmax and decreasing in half-log increments. If the clinical Cmax for an agent had not been determined, the highest concentration tested was 10 microM.
2.3 Cell Culture. All cells were maintained in an incubator at 37 degrees C and 5% CO2 with 95% humidity. The PDC lines were cultured according to standard operating procedures established by the NCI PDMR. All PDCs were thawed and cultured in Matrigel-coated flasks prepared with a working solution of 1X Ham's F-12 nutrient mix, without supplementation (Invitrogen, cat. 11765054), 100 U/mL penicillin-streptomycin (Invitrogen, cat. 15140122), and 2.5% Matrigel (Corning Inc., cat. 354248) for the first three passages. The 857933-349-R-J2-PDC line was cultured in 6C/Colon 1B media, which includes advanced DMEM/F-12 (Thermo Fisher Scientific, cat. 12634028), 10 mM HEPES (Thermo Fisher Scientific, cat. 15630080), 1X GlutaMAX supplement (Thermo Fisher Scientific, cat. 35050061), 0.1 mg/mL primocin (InvivoGen, cat. ant-pm-2), 10% defined fetal bovine serum, heat inactivated (HyClone Laboratories Inc., cat. SH30070.03HI), 50% L-WRN conditioned media (ATCC, cat. CRL-3276), 1.25 mM N-Acetyl-L-cysteine (Sigma-Aldrich, cat. A9165), 10 mM nicotinamide (Sigma-Aldrich, cat. N0636), 1X B-27 supplement (Thermo Fisher Scientific, cat. 17504044), 1X N-2 supplement (Thermo Fisher Scientific, cat. 17502048), 10 microM Y-27632 dihydrochloride (Tocris Bioscience, cat. 1254), and 50 ng/mL human EGF recombinant protein (Thermo Fisher Scientific, cat. PHG0311). The 485176-168-R4-J1-PDC line was cultured in Panc media, which includes all 6C/Colon 1B media components plus 100 ng/mL human FGF-10 (Thermo Fisher Scientific, cat. 100-26), 500 nM SB-431542 (Selleckchem, cat. S1067), and gastrin (Tocris, cat. 3006).
[…]

## CCc1c2c(nc3ccc(O)cc13)-c1cc3c(c(=O)n1C2)COC(=O)[C@]3(O)CC
Compound 0.000999 µM
  viability, T/C: 65.9% and 72.5% and 67.1%
Compound 0.00316 µM
  viability, T/C: 36% and 43.4% and 27.6%
Compound 0.00999 µM
  viability, T/C: 44% and 61.2% and 38.6%
Compound 0.0316 µM
  viability, T/C: 36% and 47.2% and 30.2%
Compound 0.0999 µM
  viability, T/C: 27% and 38.1% and 23.1%
Compound 0.316 µM
  viability, T/C: 16.4% and 21.9% and 12.8%

## COc1ccc([C@@H](O)c2cc(-c3ncnc4cc(N5CCOCC5)ccc34)c(F)cc2Cl)nn1
Compound 0.0316 µM
  viability, T/C: 91.9% and 96.4% and 101%
Compound 0.1 µM
  viability, T/C: 89.4% and 85.8% and 88.5%
Compound 0.316 µM
  viability, T/C: 82.2% and 83.3% and 78.4%
Compound 1 µM
  viability, T/C: 55.6% and 57.7% and 45%
Compound 3.16 µM
  viability, T/C: 35% and 38.2% and 27.2%
Compound 10 µM
  viability, T/C: 22.3% and 28.1% and 20.7%
Curve of compound
  IC50: 1420 nM and 1620 nM and 867 nM

## CC[C@@]1(O)C(=O)OCc2c1cc1n(c2=O)Cc2cc3c(CN(C)C)c(O)ccc3nc2-1 + Cc1[nH]c2ccc(F)cc2c1-c1nc2c3cccnc3c3ncccc3c2[nH]1
Curve of first compound, second compound 0.0316 µM
  IC50: 85.2 nM
Curve of first compound, second compound 0.1 µM
  IC50: 84.8 nM
Curve of first compound, second compound 0.316 µM
  IC50: 80.2 nM
Curve of first compound, second compound 1 µM
  IC50: 78.3 nM
Curve of first compound, second compound 3.16 µM
  IC50: 85.7 nM
Curve of first compound, second compound 10 µM
  IC50: 77.2 nM
Second compound 0.0316 µM, first compound 0.000999 µM
  viability, T/C: 103%
Second compound 0.0316 µM, first compound 0.00316 µM
  viability, T/C: 89.6%
Second compound 0.0316 µM, first compound 0.00999 µM
  viability, T/C: 107%
Second compound 0.0316 µM, first compound 0.0316 µM
  viability, T/C: 85.2%
Second compound 0.0316 µM, first compound 0.0999 µM
  viability, T/C: 43.1%
Second compound 0.0316 µM, first compound 0.316 µM
  viability, T/C: 45.6%
Second compound 0.1 µM, first compound 0.000999 µM
  viability, T/C: 110%
Second compound 0.1 µM, first compound 0.00316 µM
  viability, T/C: 105%
Second compound 0.1 µM, first compound 0.00999 µM
  viability, T/C: 104%
Second compound 0.1 µM, first compound 0.0316 µM
  viability, T/C: 87.3%
Second compound 0.1 µM, first compound 0.0999 µM
  viability, T/C: 42.5%
Second compound 0.1 µM, first compound 0.316 µM
  viability, T/C: 45.1%
Second compound 0.316 µM, first compound 0.000999 µM
  viability, T/C: 97.1%
Second compound 0.316 µM, first compound 0.00316 µM
  viability, T/C: 99.7%
Second compound 0.316 µM, first compound 0.00999 µM
  viability, T/C: 106%
Second compound 0.316 µM, first compound 0.0316 µM
  viability, T/C: 89%
Second compound 0.316 µM, first compound 0.0999 µM
  viability, T/C: 40.2%
Second compound 0.316 µM, first compound 0.316 µM
  viability, T/C: 41.5%
Second compound 1 µM, first compound 0.000999 µM
  viability, T/C: 114%
Second compound 1 µM, first compound 0.00316 µM
  viability, T/C: 99.8%
Second compound 1 µM, first compound 0.00999 µM
  viability, T/C: 105%
Second compound 1 µM, first compound 0.0316 µM
  viability, T/C: 80.2%
Second compound 1 µM, first compound 0.0999 µM
  viability, T/C: 41.5%
Second compound 1 µM, first compound 0.316 µM
  viability, T/C: 40.2%
Second compound 3.16 µM, first compound 0.000999 µM
  viability, T/C: 82.7%
Second compound 3.16 µM, first compound 0.00316 µM
  viability, T/C: 97.8%
Second compound 3.16 µM, first compound 0.00999 µM
  viability, T/C: 99%
Second compound 3.16 µM, first compound 0.0316 µM
  viability, T/C: 91.7%
Second compound 3.16 µM, first compound 0.0999 µM
  viability, T/C: 43.1%
Second compound 3.16 µM, first compound 0.316 µM
  viability, T/C: 44.1%
Second compound 10 µM, first compound 0.000999 µM
  viability, T/C: 96.1%
Second compound 10 µM, first compound 0.00316 µM
  viability, T/C: 86.8%
Second compound 10 µM, first compound 0.00999 µM
  viability, T/C: 108%
Second compound 10 µM, first compound 0.0316 µM
  viability, T/C: 85.1%
Second compound 10 µM, first compound 0.0999 µM
  viability, T/C: 40.5%
Second compound 10 µM, first compound 0.316 µM
  viability, T/C: 38.7%
